From ChEMBL document CHEMBL1136333, “A novel series of histone deacetylase inhibitors incorporating hetero aromatic ring systems as connection units” (Bioorg Med Chem Lett, 2003)

Legend:
[1] = system: HT-1080; test: Antiproliferative activity against human HT1080 fibrosarcoma cell line at a dose of 50 uM; format: functional
[2] = molecular target: Histone deacetylase (HDAC1 and HDAC2) (Homo sapiens, UniProt Q13547+Q92769); test: Inhibitory activity against histone deacetylase (HDAC1 and HDAC2) isolated from K562 erythroleukemia cells; format: cell-based
[3] = cells; format: functional; conditions: Homo sapiens, MDA435
[4] = system: HT-1080; test: Antiproliferative activity against human HT1080 fibrosarcoma cell line; format: functional, cell-based
[5] = Antiproliferative activity against human MDA-435 breast carcinoma cell line at a dose of 50 uM; format: functional

SMILES	inhibition at 50 µM [1] [%]	IC50 [2] [nM]	IC50 [3] [nM]	IC50 [4] [nM]	inhibition at 50 µM [5] [%]
O=C(CCCCCCc1nc(-c2ccc(OC(F)(F)F)cc2)cs1)NO	100	74	2040	–	–
O=C(CCCCCCCc1ccccc1)NO	–	560	–	–	–
COc1ccc(-c2cnc(CCCCCCC(=O)NO)o2)cc1	–	2.1	2520	310	–
O=C(CCCCCCc1cnc(-c2ccc(Br)cc2)o1)NO	–	4.4	–	27000	97
COc1ccc(-c2csc(CCCCCCC(=O)NO)n2)cc1	–	2.5	2970	3630	–
O=C(CCCCCCOc1ccccc1)NO	–	330	–	–	–
O=C(CCCCCCc1cnc(-c2ccc(OC(F)(F)F)cc2)o1)NO	–	89	20400	5140	–
O=C(CCCCCCc1ncc(-c2ccc(-c3ccc(Cl)cc3)cc2)o1)NO	–	6.8	950	660	–
O=C(CCCCCCc1nc(-c2ccccc2)cs1)NO	–	19	–	5070	99.7
O=C(CCCCCCc1nc(-c2cccc(Br)c2)cs1)NO	–	5.8	–	10100	98.6
O=C(CCCCCCc1ccc(-c2ccccc2)cc1)NO	–	58	–	–	–
O=C(CCCCCCc1nc(-c2ccc(C(F)(F)F)cc2)cs1)NO	–	42	850	2390	–
O=C(CCCCCCc1nc(-c2ccc(-c3ccccc3)cc2)cs1)NO	–	11	1950	1320	–
O=C(CCCCCCc1cnc(-c2ccccc2)o1)NO	23	13	–	–	6.12
CNC(=O)C(=O)CCCCCCc1cnc(-c2ccc(Br)cc2)o1	–	30	–	–	–
CNC(=O)C(=O)CCCCCCc1cnc(-c2ccccc2)s1	–	47	–	–	–
O=C(CCCCCCc1ncc(-c2ccccc2)o1)NO	–	9.8	2200	8410	–
O=C(CCCCCCc1cnc(-c2ccc(F)cc2)o1)NO	76	23	7940	–	–
CNC(=O)C(=O)CCCCCCc1cnc(-c2ccccc2)o1	–	21	–	–	–
O=C(CCCCCCc1ncc(-c2ccc(Br)cc2)o1)NO	–	2.7	6700	7700	–
O=C(CCCCCCc1cnc(-c2ccc(-c3ccccc3)cc2)o1)NO	–	12	98700	15300	–
CNC(=O)C(=O)CCCCCCc1ncc(-c2ccc(OC)cc2)o1	–	11	–	–	–
O=C(CCCCCCc1nc(-c2ccc(Br)cc2)cs1)NO	–	8.5	8110	5680	–
O=C(CCCCCCc1nc(-c2ccc3ccccc3c2)cs1)NO	–	4.3	850	2390	–
COc1cccc(OC)c1-c1csc(CCCCCCC(=O)NO)n1	–	4.3	2910	2000	–
O=C(CCCCCCNC(=O)c1ccccc1)NO	–	1010	–	–	–
